# According to patent US9624228B2, “Inhibitors of ERK and methods of use” (KURA ONCOLOGY, INC., priority 2013, dated 2017):
# Target: ERK2 enzyme (Homo sapiens (Human), UniProt P28482)
# Assay: Inhibition assay of ERK (Z'-LYTE kinase assay, Ser/Thr 3 peptide substrate)
# Assay type: biochemical
# Details: 100 μM ATP
# Method: The inhibition of ERK activity by the compounds disclosed herein was determined using the Z′-LYTE kinase assay kit (Life Technologies) with a Ser/Thr 3 peptide substrate (Life Technologies) according to manufacturers' instructions. […] The IC50 values for the compounds were determined with 3-fold serial dilutions in duplicate. […] The final DMSO concentration in the assay was 1%. Final reaction volume was 20 μL/well in 384-well plates. Kinase reactions were conducted or 1 hour followed by the assay development reaction (1 hour) in a 20 ul/well in a 384 well plate format.
# [1] = In vitro, ERK2 enzyme 0.47 ng/μL
# ERK2 enzyme, sequence (P28482 whole entry): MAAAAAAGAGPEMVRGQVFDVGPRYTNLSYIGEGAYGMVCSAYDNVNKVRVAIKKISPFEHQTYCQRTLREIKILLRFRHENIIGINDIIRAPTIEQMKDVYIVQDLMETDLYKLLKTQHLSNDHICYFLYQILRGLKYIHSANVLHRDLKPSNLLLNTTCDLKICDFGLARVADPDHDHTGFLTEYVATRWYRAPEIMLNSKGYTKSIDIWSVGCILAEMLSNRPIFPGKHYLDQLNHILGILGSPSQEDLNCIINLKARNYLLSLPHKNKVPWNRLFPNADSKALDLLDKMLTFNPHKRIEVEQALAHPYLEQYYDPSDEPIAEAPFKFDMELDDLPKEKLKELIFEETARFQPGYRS
Structure (SMILES),IC50 (In vitro ERK2 enzyme),IC50 [1]
[2H]C([2H])(c1ccccc1)N1CCC[C@@H](N2Cc3cc4c(-c5ccnc(C)c5)n[nH]c4cc3NC2=O)C1 [Compound 148],< 50 nM,
Cc1cc(-c2n[nH]c3cc4c(cc23)CN(Cc2cccc(Cl)c2)C(=O)N4)cc(C)n1 [Compound 77],< 50 nM,
Cc1cc(-c2n[nH]c3cc4c(cc23)CN(Cc2ccccc2Cl)C(=O)N4)ccn1 [Compound 217],,< 50 nM
Cc1cc(-c2n[nH]c3cc4c(cc23)CN([C@@H]2CCCOC2)C(=O)N4)ccn1 [Compound 49],< 50 nM,
CCC(=O)NCCCN1Cc2cc3c(-c4cnc(OC)nc4)n[nH]c3cc2NC1=O [Compound 105],< 50 nM,
Cc1cc(-c2n[nH]c3cc4c(cc23)CN(C2CN(CC3CC3)C2)C(=O)N4)ccn1 [Compound 198],,250 to 1000 nM
Cc1cc(-c2n[nH]c3cc4c(cc23)CN([C@@H]2CCCN(Cc3cc(F)ccc3F)C2)C(=O)N4)ccn1 [Compound 187],< 50 nM,
Cc1cc(-c2n[nH]c3cc4c(cc23)CN(C2CCN(CC3CC3)CC2)C(=O)N4)ccn1 [Compound 69],50 to 250 nM,
Cc1cc(-c2n[nH]c3cc4[nH]c(=O)n(Cc5cccc(Cl)c5)c(=O)c4cc23)ccn1 [Compound 24],50 to 250 nM,
O=C1Nc2cc3[nH]nc(-c4ccnnc4)c3cc2CN1[C@@H]1CCCN(Cc2ccccc2)C1 [Compound 120],< 50 nM,
Cc1cc(-c2n[nH]c3cc4c(cc23)CN([C@@H]2CCCN(Cc3cnn(C)c3)C2)C(=O)N4)ccn1 [Compound 133],< 50 nM,
Cc1cc(-c2n[nH]c3cc4c(cc23)CN([C@@H]2CCN(CCC(C)C)C2)C(=O)N4)ccn1 [Compound 207],,50 to 250 nM
Cn1cc(-c2n[nH]c3cc4c(cc23)CN(Cc2ccc(F)c(Cl)c2)C(=O)N4)ccc1=O [Compound 41],< 50 nM,
COc1ccc(-c2n[nH]c3cc4c(cc23)CN(Cc2ccc(F)cc2F)C(=O)N4)cn1 [Compound 87],< 50 nM,
COc1ncc(-c2n[nH]c3cc4c(cc23)CN([C@H](CO)c2cccc(Cl)c2)C(=O)N4)cn1 [Compound 118],< 50 nM,
Cc1cc(-c2n[nH]c3cc4c(cc23)CN(C2CCCCC2)C(=O)N4)ccn1 [Compound 204],,< 50 nM
Cc1cc(-c2n[nH]c3cc4c(cc23)CN([C@@H]2CCCN(CCc3cccc(Cl)c3)C2)C(=O)N4)ccn1 [Compound 164],< 50 nM,
Cc1cc(-c2n[nH]c3cc4c(cc23)CN(C(C)CC(C)C)C(=O)N4)ccn1 (stereo not drawn) [Compound 53],< 50 nM,
O=C1Nc2cc3[nH]nc(-c4ccnnc4)c3cc2CN1Cc1ccc(F)cc1 [Compound 97],< 50 nM,
O=C1Nc2cc3[nH]nc(-c4ccnnc4)c3cc2CN1Cc1ccc(F)cc1F [Compound 114],< 50 nM,
COc1ncc(-c2n[nH]c3cc4c(cc23)CN([C@@H]2CCCN(Cc3c(F)cccc3OC)C2)C(=O)N4)cn1 [Compound 103],< 50 nM,
Cc1cc(-c2n[nH]c3cc4c(cc23)CN(Cc2ccc(CC#N)cc2)C(=O)N4)ccn1 [Compound 65],< 50 nM,

Structure (SMILES),IC50 (In vitro ERK2 enzyme),IC50 [1]
Cc1cc(-c2n[nH]c3cc4c(cc23)CN([C@@H]2CCCN(Cc3ccc(Cl)cc3)C2)C(=O)N4)ccn1 [Compound 159],< 50 nM,
Cc1cc(-c2n[nH]c3cc4c(cc23)CN(CCC2CCOCC2)C(=O)N4)ccn1 [Compound 220],,< 50 nM
Cc1cc(-c2n[nH]c3cc4c(cc23)CN([C@@H]2CCCN(Cc3csc(C)n3)C2)C(=O)N4)ccn1 [Compound 140],< 50 nM,
Cc1cc(-c2n[nH]c3cc4c(cc23)CN([C@@H]2CCCN(CC3CCCCC3)C2)C(=O)N4)ccn1 [Compound 141],50 to 250 nM,
COc1ncccc1CN1CCC[C@@H](N2Cc3cc4c(-c5ccnc(C)c5)n[nH]c4cc3NC2=O)C1 [Compound 150],< 50 nM,
Cc1cc(-c2n[nH]c3cc4c(cc23)CN([C@@H]2CCCN(Cc3cccc(F)c3)C2)C(=O)N4)ccn1 [Compound 184],< 50 nM,
Cc1cc(-c2n[nH]c3cc4[nH]c(=O)n(CCc5ccccc5)c4cc23)ccn1 [Compound 20],50 to 250 nM,
COCCN1Cc2cc3c(-c4ccnc(C)c4)n[nH]c3cc2NC1=O [Compound 52],< 50 nM,
O=C1Nc2cc3[nH]nc(-c4ccnnc4)c3cc2CN1Cc1cc(F)cc(F)c1 [Compound 127],< 50 nM,
O=C1Nc2cc3[nH]nc(-c4ccc(F)cc4)c3cc2CN1Cc1ccc(F)c(Cl)c1 [Compound 40],50 to 250 nM,
Cc1cc(-c2n[nH]c3cc4c(cc23)CN([C@@H]2CCCNC2)C(=O)N4)ccn1 [Compound 32],50 to 250 nM,
COCCOCCN1Cc2cc3c(-c4ccnc(C)c4)n[nH]c3cc2NC1=O [Compound 45],< 50 nM,
Cc1cc(-c2n[nH]c3cc4c(cc23)CN([C@@H](C)c2cccc(Cl)c2)C(=O)N4)ccn1 [Compound 28],50 to 250 nM,
Cc1cc(-c2n[nH]c3cc4c(cc23)CN([C@@H]2CCCN(Cc3ccc(F)c(Cl)c3)C2)C(=O)N4)ccn1 [Compound 134],< 50 nM,
Cc1cc(-c2n[nH]c3cc4c(cc23)CN([C@@H]2CCCN(CCc3ccccc3)C2)C(=O)N4)ccn1 [Compound 145],< 50 nM,
Cc1cc(-c2n[nH]c3cc4c(cc23)CN([C@@H]2CCCN(C3CCCCC3)C2)C(=O)N4)ccn1 [Compound 194],50 to 250 nM,
COc1ccc(-c2n[nH]c3cc4c(cc23)CN(Cc2ccc(F)c(Cl)c2)C(=O)N4)cn1 [Compound 36],< 50 nM,
Cc1cc(-c2n[nH]c3cc4c(cc23)CN([C@@H]2CCCN(C(C)c3cccc(Cl)c3)C2)C(=O)N4)ccn1 (stereo partly drawn) [Compound 180],50 to 250 nM,
COc1ncc(-c2n[nH]c3cc4c(cc23)CN(CCN)C(=O)N4)cn1 [Compound 113],50 to 250 nM,
O=C1Nc2cc3[nH]nc(-c4cccnc4)c3cc2CN1Cc1cccc(Cl)c1 [Compound 57],< 50 nM,
COc1ncc(-c2n[nH]c3cc4c(cc23)CN(C)CC(=O)N4)cn1 [Compound 109],> 1000 nM,

# Results, then the molecule that gave them:
IC50 (In vitro ERK2 enzyme),IC50 [1],Structure (SMILES)
,< 50 nM,Cc1cc(-c2n[nH]c3cc4c(cc23)CN([C@@H]2CN(CC(F)F)C[C@H]2c2ccccc2)C(=O)N4)ccn1 (mixture of isomers) [Compound 362]
,< 50 nM,Cc1ccc(-c2n[nH]c3cc4c(cc23)CN([C@@H]2CCN(CC(F)(F)F)C2)C(=O)N4)cn1 [Compound 274]
,50 to 250 nM,COc1cc(-c2n[nH]c3cc4c(cc23)CN([C@@H]2CN(CC(F)(F)F)C[C@H]2c2ccccc2)C(=O)N4)ccn1 [Compound 375]
,< 50 nM,COc1cc(-c2n[nH]c3cc4c(cc23)CN([C@@H]2CCCN(Cc3ccc(F)cc3F)C2)C(=O)N4)ccn1 [Compound 271]
,< 50 nM,C=C(c1ccccc1)c1cc2cc3c(-c4ccnc(C)c4)n[nH]c3cc2[nH]c1=O [Compound 269]
,50 to 250 nM,Cc1cc(-c2n[nH]c3cc4c(cc23)CN([C@H]2CN(C(C)C)C[C@@H]2c2ccccc2)C(=O)N4)ccn1 [Compound 296]
,< 50 nM,Cc1cc(-c2n[nH]c3cc4c(cc23)CN([C@@H]2CN(CCC#N)C[C@H]2c2ccccc2)C(=O)N4)ccn1 (mixture of isomers) [Compound 356]
,< 50 nM,COc1ncc(-c2n[nH]c3cc4c(cc23)CN([C@@H]2CN(C)C[C@H]2c2ccccc2)C(=O)N4)cn1 (mixture of isomers) [Compound 355]
,< 50 nM,Cc1cc(-c2n[nH]c3cc4c(cc23)CN(C2CCC(=O)N(Cc3ccccc3)C2)C(=O)N4)ccn1 (stereo not drawn) [Compound 232]
,< 50 nM,Cc1cc(-c2n[nH]c3cc4c(cc23)CN([C@@H]2CCCN(Cc3ccsc3)C2)C(=O)N4)ccn1 [Compound 252]
,250 to 1000 nM,CN(C)CCN1CCN(c2n[nH]c3cc4c(cc23)CN(Cc2ccc(F)c(Cl)c2)C(=O)N4)CC1 [Compound 260]
,< 50 nM,Cc1cc(-c2n[nH]c3cc4c(cc23)CN([C@H]2CN(Cc3ccccc3)CC(F)(F)C2)C(=O)N4)ccn1 [Compound 264]
,< 50 nM,Nc1ncc(-c2n[nH]c3cc4c(cc23)CN([C@@H]2CN(CC(F)(F)F)C[C@H]2c2ccccc2)C(=O)N4)cn1 [Compound 351]
,< 50 nM,CC(c1ccccc1)c1cc2cc3c(NC4CCOCC4)n[nH]c3cc2[nH]c1=O (stereo not drawn) [Compound 338]
,< 50 nM,CC(c1ccccc1)c1cc2cc3c(-c4ccnc(N)c4)n[nH]c3cc2[nH]c1=O (stereo not drawn) [Compound 344]
,< 50 nM,Cn1cc(-c2n[nH]c3cc4c(cc23)CN([C@@H]2CN(CC(F)(F)F)C[C@H]2c2ccccc2)C(=O)N4)cn1 [Compound 352]
,50 to 250 nM,Cn1nccc1-c1n[nH]c2cc3c(cc12)CN([C@@H]1CCN(CC(F)(F)F)C1)C(=O)N3 [Compound 265]
,< 50 nM,Cc1ncc(-c2n[nH]c3cc4c(cc23)CN([C@@H]2CCN(CC(F)(F)F)C2)C(=O)N4)cn1 [Compound 282]
,50 to 250 nM,Cc1cnccc1-c1n[nH]c2cc3[nH]c(=O)c(C(C)c4ccccc4)cc3cc12 (stereo not drawn) [Compound 343]
,< 50 nM,COc1ncc(-c2n[nH]c3cc4c(cc23)CN([C@@H]2CN(CC(F)(F)F)C[C@H]2c2ccccc2)C(=O)N4)cn1 [Compound 348]
,< 50 nM,Cc1cc(-c2n[nH]c3cc4c(cc23)CN([C@@H]2CN(C)C[C@H]2c2ccccc2)C(=O)N4)ccn1 (racemic) [Compound 241]
,50 to 250 nM,Cc1cc(-c2n[nH]c3cc4c(cc23)CN([C@@H]2CN(CC(F)(F)F)C[C@H]2c2ccccc2F)C(=O)N4)ccn1 (racemic) [Compound 311]
,50 to 250 nM,Cc1cc(-c2n[nH]c3cc4c(cc23)CN([C@@H]2CN(CC(F)(F)F)C[C@H]2C(C)C)C(=O)N4)ccn1 (mixture of isomers) [Compound 322]
,< 50 nM,Cc1ncc(-c2n[nH]c3cc4c(cc23)CN([C@@H]2CCCN(Cc3ccc(F)cc3F)C2)C(=O)N4)cn1 [Compound 293]
,< 50 nM,Cc1cc(-c2n[nH]c3cc4c(cc23)CN(Cc2cc(F)cc(F)c2)C(=O)N4)cc(C)n1 [Compound 225]
,< 50 nM,CC(c1ccccc1)c1cc2cc3c(-c4cccnc4)n[nH]c3cc2[nH]c1=O (stereo not drawn) [Compound 330]
